From the NIST ThermoML archive (doi:10.1021/acs.jced.9b00441) come the findings set out here.

Data set [1] can be described thus: refractive index (Na D-line) (dimensionless). The note with it: 101.33 kPa, Liquid, Standard Abbe refractometry.
For data set [2] the following is noted: Liquid; for mass density: 101.33 kPa, Vibrating tube method; for vapor or sublimation pressure: Closed cell (Static) method.

Each structure is given as a SMILES string. ± gives the expanded uncertainty stated by the source.

For `OCC(F)(F)C(F)(F)C(F)(F)F` [2,2,3,3,4,4,4-heptafluorobutanol], the refractive index in data set [1] (293.15 K) was determined as 1.264 ± 0.001. For the same compound, the mass density in data set [2] (293.15 K) came to 1580 ± 2 kg/m3.

In the case of `CC1CCCO1` (stereo not given) [2-methyltetrahydrofuran], the refractive index in data set [1] (294.15 K) came to 1.405 ± 0.001. Also, in data set [2] (293.15 K), the mass density came to 855 ± 1 kg/m3.

For the compound `C1CCCCC1` [cyclohexane], in data set [1] (293.15 K), the refractive index is listed as 1.423 ± 0.001. For the same compound, in data set [2] (298.15 K), the mass density worked out at 775 ± 1 kg/m3.

Consider `FC(F)=C(F)C(F)(F)F` [hexafluoropropene], for which the “vapor or sublimation pressure” value in data set [2] (302.94 K) stood at 838 ± 7 kPa; in data set [2] (312.91 K) it was 1094 ± 7 kPa; in data set [2] (322.94 K), 1407 ± 8 kPa; in data set [2] (332.94 K), 1783 ± 8 kPa; in data set [2] (342.92 K) it was 2225 ± 8 kPa.

With `CCCCCC` [hexane], the refractive index in data set [1] (298.15 K) amounted to 1.375 ± 0.001. For the same compound, the mass density in data set [2] (298.15 K) amounted to 654 ± 1 kg/m3.

Consider `CC1CCCCC1` [methylcyclohexane], for which the refractive index in data set [1] (293.15 K) came out at 1.423 ± 0.001. Besides, the mass density in data set [2] (293.15 K) worked out at 769 ± 1 kg/m3.

The term refractive index denotes the speed of light in vacuum divided by its phase velocity in the sample. As usually defined, the mass density is the mass of a sample divided by its volume. By vapor or sublimation pressure is commonly meant the pressure of vapour in equilibrium with the condensed phase.
